The record followed here is PMC4627656, “Combining Metabolite-Based Pharmacophores with Bayesian Machine Learning Models for Mycobacterium tuberculosis Drug Discovery” (PLoS ONE, 2015).

≈ marks a conversion by molar mass, not a printed value.

Holding throughout (type): cell-based
For assay [1], the system named is clinical MDR-TB strain 31. As to the kind of experiment: AlamarBlue MIC (absorbance), strain panel: 31. The conditions noted are these: Mycobacterium tuberculosis, read-out: MIC, strain 31.
The test system of another assay is clinical strain 210. As to the kind of experiment: AlamarBlue MIC (absorbance), strain panel: 210. As to conditions: Mycobacterium tuberculosis, drug resistance: None. On the technique in general: The colour change of resazurin is a common sign of viable cells or microbes.
Assay [2] deals with clinical MDR-TB strain 116. As to the kind of experiment: AlamarBlue MIC (absorbance), strain panel: 116. The conditions noted are these: Mycobacterium tuberculosis, read-out: MIC, strain 116.
Assay [3] deals with clinical MDR-TB strain 91. As to the kind of experiment: AlamarBlue MIC (absorbance), strain panel: 91. The conditions noted are these: Mycobacterium tuberculosis, read-out: MIC, strain 91.
In assay [4] the test system is clinical MDR-TB strain 36. As to the kind of experiment: AlamarBlue MIC (absorbance), strain panel: 36. The conditions noted are these: Mycobacterium tuberculosis, read-out: MIC, strain 36.
Assay [5] deals with H37Rv (laboratory strain). In words: AlamarBlue MIC (absorbance), strain panel: H37Rv. The conditions noted are these: Mycobacterium tuberculosis, drug resistance: None.

Regarding `CCCCC(=O)c1c(C)[n+]([O-])c2ccc([N+](=O)[O-])cc2[n+]1[O-]` [SRI50], the MIC (commonly the least concentration at which growth counts as inhibited) stood at 0.31 µg/mL (≈ 1.02 µM) in assay [1]; 0.31 µg/mL (≈ 1.02 µM) in the assay on clinical strain 210; 0.16 µg/mL (≈ 0.524 µM) in assay [2]; 0.16 µg/mL (≈ 0.524 µM) in assay [3]; 0.16 µg/mL (≈ 0.524 µM) in assay [4]; 0.16 µg/mL (≈ 0.524 µM) in assay [5].
